ChEMBL document CHEMBL1165957, “Alkaloids from the bark of Guatteria hispida and their evaluation as antioxidant and antimicrobial agents” (2010)
Values after ≈ are worked out from the molar mass of the structure shown. Active and inactive are the calls of the source. The calls are words filed in the database; no cut-off is given here.

Experiments:
Assay type in all cases: functional
[1] = Antioxidant activity assessed as trolox equivalents of peroxyl radical scavenging activity by ORAC assay; design: unit not given here
Kocuria rhizophila = assay: Antimicrobial activity against Kocuria rhizophila ATCC 9341 by broth dilution method
Staphylococcus aureus [2] = assay: Antimicrobial activity against Staphylococcus aureus ATCC 14458 by broth dilution method
Staphylococcus aureus [3] = assay: Antimicrobial activity against Staphylococcus aureus 7+ penicillinase positive + by broth dilution method
Staphylococcus aureus [4] = assay: Antimicrobial activity against Staphylococcus aureus 8- penicillinase negative by broth dilution method
[5] = test system: Staphylococcus epidermidis; assay: Antimicrobial activity against Staphylococcus epidermidis 6ep by broth dilution method
Escherichia coli = assay: Antimicrobial activity against Escherichia coli ATCC 10538 by broth dilution method
Pseudomonas aeruginosa = assay: Antimicrobial activity against Pseudomonas aeruginosa ATCC 27853 by broth dilution method
Candida albicans = assay: Antimicrobial activity against Candida albicans ATCC 10231 by broth dilution method
Candida tropicalis = assay: Antimicrobial activity against Candida tropicalis CT by broth dilution method
Nakaseomyces glabratus = assay: Antimicrobial activity against Candida glabrata ATCC 30070 by broth dilution method
Candida parapsilosis = assay: Antimicrobial activity against Candida parapsilosis ATCC 22019 by broth dilution method
Candida dubliniensis [6] = assay: Antimicrobial activity against Candida dubliniensis ATCC 777 by broth dilution method
Candida dubliniensis [7] = assay: Antimicrobial activity against Candida dubliniensis ATCC 778157 by broth dilution method

SMILES: COc1cc2c(cc1O)C[C@H]1c3cc(O)c(OC)cc3CCN1C2
- Activity [1]: 1.4

SMILES: COc1cc2c(cc1O)C[C@H]1c3cc(OC)c(O)cc3CCN1C2
- Activity [1]: 1.67

SMILES: COc1cc2c3c(c1OC)-c1ccccc1CC3NCC2 (configuration not stated)
- Activity [1]: 0.27

SMILES: COc1ccc2c(c1)C(=O)c1nccc3c(O)c(OC)c(OC)c-2c13
- Activity [1]: 1.62

SMILES: O=C(O)/C=C/c1ccc(O)c(O)c1
- Activity [1]: 2.95

SMILES: O=c1c(O)c(-c2ccc(O)c(O)c2)oc2cc(O)cc(O)c12
- Activity [1]: 5.62

SMILES: O=c1c(O[C@@H]2O[C@H](CO)[C@@H](O)[C@H](O)[C@H]2O)c(-c2ccc(O)c(O)c2)oc2cc(O)cc(O)c12
- Activity [1]: 5.25

SMILES: O=C(N[C@H](CO)[C@H](O)c1ccc([N+](=O)[O-])cc1)C(Cl)Cl [CHLORAMPHENICOL]
- MIC (Kocuria rhizophila): 50 µg/mL (≈ 155 µM)
- MIC (Staphylococcus aureus [2]): 25 µg/mL (≈ 77.4 µM)
- MIC (Staphylococcus aureus [3]): 25 µg/mL
- MIC (Staphylococcus aureus [4]): 25 µg/mL (≈ 77.4 µM)
- MIC [5]: 50 µg/mL (≈ 155 µM)
- MIC (Escherichia coli): 50 µg/mL (≈ 155 µM)
- MIC (Pseudomonas aeruginosa): 850 µg/mL (≈ 2630 µM)

SMILES: COc1c(OC)c2c3c(nccc3c1OC)C(=O)c1ccccc1-2 [HOMOMOSCHATOLINE]
- MIC (Kocuria rhizophila): inactive
- MIC (Staphylococcus aureus [2]): inactive
- MIC (Staphylococcus aureus [3]): inactive
- MIC (Staphylococcus aureus [4]): inactive
- MIC [5]: 25 µg/mL (≈ 77.8 µM)
- MIC (Escherichia coli): inactive
- MIC (Pseudomonas aeruginosa): inactive
- MIC (Candida albicans): inactive
- MIC (Candida tropicalis): inactive
- MIC (Nakaseomyces glabratus): inactive
- MIC (Candida parapsilosis): inactive
- MIC (Candida dubliniensis [6]): 12.5 µg/mL (≈ 38.9 µM)
- MIC (Candida dubliniensis [7]): 25 µg/mL (≈ 77.8 µM)
- Activity [1]: 0.5

SMILES: CC(=O)N1CCN(c2ccc(OCC3COC(Cn4ccnc4)(c4ccc(Cl)cc4Cl)O3)cc2)CC1 (configuration not stated) [KETOCONAZOLE]
- MIC (Candida albicans): 12.5 µg/mL (≈ 23.5 µM)
- MIC (Candida tropicalis): 12.5 µg/mL (≈ 23.5 µM)
- MIC (Nakaseomyces glabratus): 12.5 µg/mL (≈ 23.5 µM)
- MIC (Candida parapsilosis; Lodderomyces parapsilosis): 12.5 µg/mL (≈ 23.5 µM)
- MIC (Candida dubliniensis [6]): 12.5 µg/mL (≈ 23.5 µM)
- MIC (Candida dubliniensis [7]): 12.5 µg/mL (≈ 23.5 µM)

SMILES: O=C1c2ccccc2-c2c3c(cc4ccnc1c24)OCO3 [LIRIODENINE]
- MIC (Kocuria rhizophila): inactive
- MIC (Staphylococcus aureus [2]): inactive
- MIC (Staphylococcus aureus [3]): inactive
- MIC (Staphylococcus aureus [4]): inactive
- MIC [5]: 50 µg/mL (≈ 182 µM)
- MIC (Escherichia coli): inactive
- MIC (Pseudomonas aeruginosa): inactive
- MIC (Candida albicans): inactive
- MIC (Candida tropicalis): inactive
- MIC (Nakaseomyces glabratus): inactive
- MIC (Candida parapsilosis): inactive
- MIC (Candida dubliniensis [6]): 50 µg/mL (≈ 182 µM)
- MIC (Candida dubliniensis [7]): 100 µg/mL (≈ 363 µM)
- Activity [1]: 0.3

SMILES: COc1cc2ccnc3c2c(c1OC)-c1ccccc1C3=O [LYSICAMINE]
- MIC (Kocuria rhizophila): inactive
- MIC (Staphylococcus aureus [2]): inactive
- MIC (Staphylococcus aureus [3]): inactive
- MIC (Staphylococcus aureus [4]): inactive
- MIC [5]: 50 µg/mL (≈ 172 µM)
- MIC (Escherichia coli): inactive
- MIC (Pseudomonas aeruginosa): inactive
- MIC (Candida albicans): inactive
- MIC (Candida tropicalis): inactive
- MIC (Nakaseomyces glabratus): inactive
- MIC (Candida parapsilosis): inactive
- MIC (Candida dubliniensis [6]): 100 µg/mL (≈ 343 µM)
- MIC (Candida dubliniensis [7]): 100 µg/mL (≈ 343 µM)
- Activity [1]: 0.86
